Reference: patent US20040175383A1, “Methods and compositions for treatment of otitis media” (priority 2002, published 2004)
Where two headings read alike, the source gives them in different places.

Experiments:
[1] = tested on: MMP activity (tMMP, predominantly MMPs 2 and 9) in MEE samples; assay: MMP activity in human middle ear effusion samples in the presence of ilomastat (colorimetric synthetic substrate assay); type: biochemical; parameters: Inhibition of MMP activity, overall / Ilomastat-MMP Inhibition % (mean inhibition): concentration or dose not given beside the values; details: for Ilomastat-MMP Inhibition % (mean inhibition) / MMP >30% Inhibition (percent of samples that had enzyme activity inhibited by >30%): MEE samples
Text: Human Subjects & Sample Collection: Middle ear effusion (MEE) samples were collected from all consenting patients that presented to the investigators for the treatment of OM. Most samples were taken from subjects at the time of myringotomy, with or without tube placement, for recurrent acute otitis media (RAOM) and chronic otitis media with effusion (COME). Less commonly, samples were collected upon presentation with acute post-tympanostomy otorrhea (APTO) or with chronic suppurative otitis media (CSOM). Samples were aspirated with a Juhn Tymp-Tap (Medtronic-Xomed, Jacksonville, Fla.). The aspiration device was rinsed—and sample diluted—with 500 μl of normal saline and immediately placed on ice for transport to the investigators' laboratories. Samples were centrifuged to remove cellular material then divided into aliquots and frozen until batch processing could be performed.
Protease and Inhibition Analysis: Active (aMMP) and proenzyme (pMMP) forms of MMPs 2 and 9 were measured using a gelatin zymography technique. MMP activity (tMMP, but predominantly MMPs 2 and 9) present in MEE samples was measured using a […] assay that uses a synthetic substrate that reduces Ellmans reagent upon cleavage. Because two different activity assays were used that detected different types and levels of MMPs, a direct comparison between aMMP, pMMP and tMMP was not considered valid. Human neutrophil elastase (HNE) activity was measured using a standard technique. Results were expressed as change in absorbance over time (mAU/min). […] Samples with excessive activity levels were tested by serial dilution. MMP activity was measured in the presence of physiologically deliverable levels of ilomastat.
Statistical Analysis: An analysis of variance was performed on the enzyme activities and mean inhibition of activities to determine if there were differences activities across diagnoses, middle ear findings. If there were statistically significant differences, […] tests were performed. […] The distribution of patients with an activities greater than 3 mAU/min and inhibition greater than 30% was tested using Fisher's exact test to determine if there was a difference in these distributions across diagnoses.

[2] = in vivo
Protocol: (§1) Prospective, randomized, controlled trial in the chinchilla model.
(§2) After completing baseline auditory testing and bilateral transpalatal obstruction of the Eustachian tube (ETO), chinchillas received weekly transbullar injections of protease inhibitor (alpha 1-antitrypsin, ilomastat, or both), vehicle, or saline. After one month, hearing was tested and the animals were sacrificed. Temporal bone histopathology was performed.
(§3) A total of 96 healthy adult chinchillas of either sex, 400-600 grams, were used in this experiment. Prior to entry into the study, all animals were otomicroscopically free of middle ear pathology. All animals underwent auditory testing and bilateral transpalatal obstruction of the Eustachian tube, followed by immediate transbullar injection (across the thin bone covering the dorsal aspect of the middle ear) of saline or vehicle solution, with or without protease inhibitor. Thus, there were five treatment groups: saline, vehicle solution, vehicle with alpha 1-antitrypsin (100 μg /ml), vehicle with ilomastat (100 μg /ml), and vehicle with alpha 1-antitrypsin and ilomastat (100 μg /ml of each). Weekly thereafter, animals received a light anesthetic for ear examinations, transbullar sampling of the middle ear fluid, and transbullar reinjection of saline or the vehicle +/− protease inhibitor. One month after ETO, animals were anesthetized, middle ear fluid was removed, and auditory testing was performed immediately prior to sacrifice. Temporal bones were harvested for histopathological analysis.
(§4) Ilomastat was prepared by substituting alpha 1-antitrypsin. Vehicle was similarly prepared, without the addition of any protease inhibitor. Injectable, 0.9% normal saline was used as the non-treatment control.
(§5) Briefly, the palate was split and the Eustachian tube orifices were bluntly palpated. The orifices were denuded of mucosa, the deeper tissues cauterized, and the lumen packed with Gelfoam sponge. The palate was reapproximated with a single layer of polyglycolic acid sutures.
(§6) Auditory Evaluation: Assessment of auditory thresholds was performed using electrocochleography. […] Electrocochleographic thresholds were measured for clicks and tone pips at 4, 8, 12, and 16 kHz. Stimulus generation was executed by an auditory electrophysiology workstation with SigGen™ and AeP™ software (Tucker-Davis Technologies, Gainesville, Fla.) and Etymotic transducers (ER-2, Elk Grove Village, Ill.). Stimuli were introduced with an insert earphone tube placed into the external auditory canal, just medial to the crus of the helix. Auditory thresholds were evaluated by decreasing stimulus intensity in 5 dB increments, from a maximum of 100 dB, until the waveform disappeared. At that point, the stimulus intensity was increased in 5 dB increments until the waveform re-emerged. […]

[3] = tested on: inner ear / hearing (electrocochleographic thresholds); assay: Ototoxicity study in chinchilla with Eustachian tube obstruction, weekly transbullar injection of protease inhibitors; details: applied to the middle ear
Protocol: as §1, §2, §3, §4, §5, §6

[4] = tested on: acute otitis media induced by Streptococcus pneumoniae; type: in vivo, chinchilla
Protocol: All study animals were initially anesthetized to allow baseline hearing testing (electrocochleography and tympanometry) and to allow bacteria (Streptococcus pneumoniae) to be injected across the thin bone covering the middle ear (dorsal bulla) to induce a middle ear infection bilaterally. After allowing the inflammation to become established for 3 to 4 days, the ears were graded for severity of middle ear inflammation. Half the ears were injected with alpha 1-antitrypsin (100 mg/ml)half with saline. All animals received systemic antibacterial treatment (enrofloxacin). […] Assessment was given quantiatively according to the following table: [table] Hearing assessment were also performed throughout the study and following euthanasia at the end of study, temporal bone specimens were obtained from all ears for histopathological analysis.

[5] = tested on: inner ear / hearing (electrocochleographic thresholds); details: in vivo
Protocol: as §1, §2, §3, §4, §5, §6

For `CNC(=O)[C@H](Cc1c[nH]c2ccccc12)NC(=O)[C@@H](CC(=O)NO)CC(C)C` [Ilomastat, N-[2(R)-2(hydroxyamidocarbonylmethyl)-4-methylpentanoyl]-L-tryptophan methyl amide], the “Ilomastat-MMP Inhibition % (mean inhibition)” value (“Ilomastat-MMP Inhibition %” for short) ([1]; diagnosis APTO) was 41.2%, the “MMP >30% Inhibition (percent of samples that had enzyme activity inhibited by >30%)” value ([1]; diagnosis APTO) was 57% and the “Ilomastat-MMP Inhibition %” value ([1]; diagnosis COME) was 70.0%. For the same molecule, the “MMP >30% Inhibition (percent of samples that had enzyme activity inhibited by >30%)” value ([1]; diagnosis COME) was 86%, the “Ilomastat-MMP Inhibition %” value ([1]; diagnosis CSOM) was 51.5% and the “MMP >30% Inhibition (percent of samples that had enzyme activity inhibited by >30%)” value ([1]; diagnosis CSOM) was 40%. The “Ilomastat-MMP Inhibition %” value ([1]; diagnosis Cholesteatoma) was 31.5%, the “MMP >30% Inhibition (percent of samples that had enzyme activity inhibited by >30%)” value ([1]; diagnosis Cholesteatoma) was 71% and the “Ilomastat-MMP Inhibition %” value ([1]; diagnosis RAOM) was 85.5%. The “MMP >30% Inhibition (percent of samples that had enzyme activity inhibited by >30%)” value ([1]; diagnosis RAOM) was 100%, the “Ilomastat-MMP Inhibition %” value ([1]; diagnosis RAOM/COME) was 81.4% and the “MMP >30% Inhibition (percent of samples that had enzyme activity inhibited by >30%)” value ([1]; diagnosis RAOM/COME) was 100%. The “Percent of MEEs with significant inhibition (>30% reduction) of MMP activity” value ([1]; MEEs with significant MMP activity (>3 mAU/min)) was 80%, the “Inhibition of MMP activity, overall” value ([1]; all MEE samples) was 64% and the “Persistence of middle ear effusion at the final treatment day (percent of ears)” value [2] was 83%. The “Ototoxicity in the chinchilla model” value [3] was “lack ototoxicity”.
For “rAAT: Recombinant alpha 1-antitrypsin, a serine protease inhibitor, expressed in recombinant yeast cells and purified by column chromatography”, the “TM Score” value ([4]; Day 1, otomicroscopic scale 0 (normal) to 6 (perforated)) was 0, the “TM Score” value ([4]; Day 4, scale 0-6) was 2.167 and the “TM Score” value ([4]; Day 6, scale 0-6) was 4.17. The “TM Score” value ([4]; Day 8, scale 0-6) was 3.5, the “TM Score” value ([4]; Day 10, scale 0-6) was 2.8 and the “TM Score” value ([4]; Day 14, scale 0-6) was 1.25. The “TM Score” value ([4]; Day 16, scale 0-6) was 0.75, the “TM Score” value ([4]; Day 18, scale 0-6) was 0.5 and the “TM Score” value ([4]; Day 20, scale 0-6) was 0.5. The “TM Score” value ([4]; Day 22, scale 0-6) was 0, the “TM Score” value ([4]; Day 24, scale 0-6) was 0 and the “TM Score” value ([4]; Day 26, scale 0-6) was 0. The “TM Score” value ([4]; Day 28, scale 0-6) was 0, the “Middle ear inflammation by otomicroscopy, compared with saline” value ([4]; otic administration, with systemic enrofloxacin) was “mitigated the inflammatory process more rapidly than saline” and the “Time to resolution of clinical manifestations of otitis media” value ([4]; single application of rAAT, control 26 days) was 22 days. For the same molecule, the “Persistence of middle ear effusion at the final treatment day (percent of ears)” value [2] was 100% and the “Ototoxicity in the chinchilla model” value [5] was “lack ototoxicity”.
